Laboratory results: US20250368666A1, “INDAZOLE COMPOUNDS” (TYRA BIOSCIENCES, INC., priority 2022, published 2025)

Assays:
FGFR1 = target: T1, FGFR1 (Homo sapiens, UniProt P11362); test: Kinase binding assay (kinase-tagged T7 phage, affinity beads, qPCR), Kd; conditions: read-out: FGFR1 (Kd nM)
T1 construct: made in house; host or cells: E. coli (BL21-derived), T7 phage
How it was run: (§1)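 Competition binding; kinase-tagged T7 phage lysate vs immobilised biotinylated ligand on streptavidin beads, 0.9% DMSO final. 11-pt 3-fold dilutions, 3 DMSO controls. qPCR of eluted kinase; Kd by Hill fit, slope −1.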

FGFR2 = target: T2, FGFR2 (Homo sapiens, UniProt P21802); test: as above; conditions: read-out: FGFR2 (Kd nM)
T2 construct: made in house; host or cells: E. coli (BL21-derived), T7 phage
How it was run: as §1

FGFR3 = target: T3, FGFR3 (Homo sapiens, UniProt P22607); test: as above; conditions: read-out: FGFR3 (Kd nM)
T3 construct: made in house; host or cells: E. coli (BL21-derived), T7 phage
How it was run: as §1

FGFR3 (V555M) = target: T4, FGFR3 (V555M) (Homo sapiens, UniProt P22607, V555M); test: as above; conditions: V555M mutant; read-out: FGFR3 (V555M) (Kd nM)
T4 construct: made in house; host or cells: E. coli (BL21-derived), T7 phage
How it was run: as §1

FGFR4 = target: T5, FGFR4 (Homo sapiens, UniProt P22455); test: as above; conditions: read-out: FGFR4 (Kd nM)
T5 construct: made in house; host or cells: E. coli (BL21-derived), T7 phage
How it was run: as §1

[1] = system: KATO-III cell line (FGFR2 amplification); test: Cancer cell line cell viability assay (Cell Titer-Glo), 72 hr; assay type: cell-based; conditions: Homo sapiens, KATO III
Excerpt: (§2) Experimental Purpose: To detect the change of intracellular ATP by Cell Titer-Glo® and to evaluate the inhibitory effect of the compounds on cancer cell lines by determining the in vitro IC50 value of the compounds.
(§3) Cell Titer-Glo® 2.0 Luminescent cell viability assay reagent was purchased from Promega (Madison, WI). KG-1, KATO-III, and MDA-MB-453 cell lines were purchased from American Type Culture Collection (Manassas, VA). RT112/84 cell line was purchased from Millipore-Sigma (St. Louis, MO). HuH7 cells were purchased from Seikisui Xenotech (Kansas City, KS). RT112/84 and MDA-MB-453 cells were cultured in RPMI1640 media supplemented with 10% fetal bovine serum. KG-1 and KATO-III cell lines were cultured in IMDM media supplemented with 20% FBS. HuH7 cells were cultured in IMDM media supplemented with 10% FBS. Cultures were maintained at 37° C. in a humidified atmosphere of 5% CO2 and 95% air.
(§4) Cell Viability Assay Procedure: Cells were plated in 96-well clear bottom/white plates (Corning #3903) at a range of densities depending on the optimal assay window (5,000-20,000 cells/well in […] of media), incubated overnight. The next day, test compound DMSO stock solutions were made at 10 mM and […] final concentration. Compounds were then added to cells in a 9-dose, 4-fold dilution series starting at 3 μM with an HP 300e Digital Dispenser (each dose was applied in triplicate). DMSO was backfilled to each well up to 301 nL total volume of test compound+DMSO, and a total of 301 nL DMSO was added to a control/no test compound well in triplicate. The cells in cell culture plates were incubated with the compounds at 37° C. and 5% CO2 for 72 hours-120 hours depending on the cell line. Then 50 μl of Cell Titer Glo 2.0 reagent was added to each well of the cell culture plates. The contents were covered from light and mixed on an orbital shaker at room temperature for minimum of 10 min. Luminescence was recorded by a Clariostar Plus Microplate Reader (BMG Labtech, Cary, NC). Cells were assessed as a percentage of DMSO only treated control cells. Curves were plotted and IC50 values were calculated using the GraphPad Prism 9 program based on a sigmoidal dose-response equation (log (inhibitor) vs. response—Variable slope, 4-parameter).

[2] = system: KG-1 cell line (FGFR 1-fusion); test: as above; assay type: cell-based; conditions: Homo sapiens, KG-1, KG-1 cell line (FGFR1-fusion)
Excerpt: as §2, §3, §4

[3] = system: RT112/84 cell line (FGFR3-fusion); test: as above; assay type: cell-based; conditions: Homo sapiens, RT112/84, RT112/84 cell line (FGFR3-fusion)
Excerpt: as §2, §3, §4

T5 sequence (P22455 22-802): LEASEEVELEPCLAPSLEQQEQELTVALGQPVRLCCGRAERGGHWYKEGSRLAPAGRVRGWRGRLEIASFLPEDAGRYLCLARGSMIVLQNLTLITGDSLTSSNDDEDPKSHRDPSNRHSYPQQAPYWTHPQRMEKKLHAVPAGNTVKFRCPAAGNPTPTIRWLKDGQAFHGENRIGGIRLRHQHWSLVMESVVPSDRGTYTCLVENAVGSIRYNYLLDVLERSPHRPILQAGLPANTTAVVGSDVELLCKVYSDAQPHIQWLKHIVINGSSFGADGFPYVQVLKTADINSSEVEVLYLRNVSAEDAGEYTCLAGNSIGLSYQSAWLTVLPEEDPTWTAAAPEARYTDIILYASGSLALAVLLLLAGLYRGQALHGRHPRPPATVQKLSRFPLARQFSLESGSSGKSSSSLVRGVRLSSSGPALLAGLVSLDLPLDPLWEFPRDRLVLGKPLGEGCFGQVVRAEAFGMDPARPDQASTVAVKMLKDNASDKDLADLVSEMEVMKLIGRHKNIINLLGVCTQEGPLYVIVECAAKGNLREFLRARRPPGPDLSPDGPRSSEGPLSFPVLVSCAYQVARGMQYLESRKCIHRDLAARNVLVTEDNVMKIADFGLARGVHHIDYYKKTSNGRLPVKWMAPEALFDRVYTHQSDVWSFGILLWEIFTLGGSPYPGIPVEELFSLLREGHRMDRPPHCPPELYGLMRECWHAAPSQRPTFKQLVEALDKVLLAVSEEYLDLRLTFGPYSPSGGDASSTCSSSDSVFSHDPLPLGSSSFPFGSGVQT
T3 sequence (P22607 23-806): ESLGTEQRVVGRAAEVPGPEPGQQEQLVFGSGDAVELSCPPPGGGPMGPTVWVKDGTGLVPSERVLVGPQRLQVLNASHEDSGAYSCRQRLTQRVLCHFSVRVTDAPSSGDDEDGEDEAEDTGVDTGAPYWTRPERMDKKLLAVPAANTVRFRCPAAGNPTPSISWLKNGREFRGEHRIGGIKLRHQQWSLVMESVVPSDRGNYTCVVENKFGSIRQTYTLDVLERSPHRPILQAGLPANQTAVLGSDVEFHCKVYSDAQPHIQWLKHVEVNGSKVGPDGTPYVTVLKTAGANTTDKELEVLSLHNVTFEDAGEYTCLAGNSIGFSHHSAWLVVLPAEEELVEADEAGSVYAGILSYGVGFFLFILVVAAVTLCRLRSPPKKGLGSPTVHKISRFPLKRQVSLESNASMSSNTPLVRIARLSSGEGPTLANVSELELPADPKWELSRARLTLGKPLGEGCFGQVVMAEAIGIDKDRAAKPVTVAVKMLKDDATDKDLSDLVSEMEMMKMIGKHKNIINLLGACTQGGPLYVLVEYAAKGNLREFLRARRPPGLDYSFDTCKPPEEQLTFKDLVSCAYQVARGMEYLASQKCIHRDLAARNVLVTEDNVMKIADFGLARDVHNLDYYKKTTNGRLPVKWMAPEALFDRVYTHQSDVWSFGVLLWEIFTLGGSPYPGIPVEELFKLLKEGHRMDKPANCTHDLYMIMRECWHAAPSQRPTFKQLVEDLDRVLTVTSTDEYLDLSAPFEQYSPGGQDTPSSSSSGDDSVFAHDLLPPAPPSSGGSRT
T4 sequence (P22607 23-806 V555M): as the sequence (P22607 23-806) above, with V533M counted along it
T1 sequence (P11362 22-822): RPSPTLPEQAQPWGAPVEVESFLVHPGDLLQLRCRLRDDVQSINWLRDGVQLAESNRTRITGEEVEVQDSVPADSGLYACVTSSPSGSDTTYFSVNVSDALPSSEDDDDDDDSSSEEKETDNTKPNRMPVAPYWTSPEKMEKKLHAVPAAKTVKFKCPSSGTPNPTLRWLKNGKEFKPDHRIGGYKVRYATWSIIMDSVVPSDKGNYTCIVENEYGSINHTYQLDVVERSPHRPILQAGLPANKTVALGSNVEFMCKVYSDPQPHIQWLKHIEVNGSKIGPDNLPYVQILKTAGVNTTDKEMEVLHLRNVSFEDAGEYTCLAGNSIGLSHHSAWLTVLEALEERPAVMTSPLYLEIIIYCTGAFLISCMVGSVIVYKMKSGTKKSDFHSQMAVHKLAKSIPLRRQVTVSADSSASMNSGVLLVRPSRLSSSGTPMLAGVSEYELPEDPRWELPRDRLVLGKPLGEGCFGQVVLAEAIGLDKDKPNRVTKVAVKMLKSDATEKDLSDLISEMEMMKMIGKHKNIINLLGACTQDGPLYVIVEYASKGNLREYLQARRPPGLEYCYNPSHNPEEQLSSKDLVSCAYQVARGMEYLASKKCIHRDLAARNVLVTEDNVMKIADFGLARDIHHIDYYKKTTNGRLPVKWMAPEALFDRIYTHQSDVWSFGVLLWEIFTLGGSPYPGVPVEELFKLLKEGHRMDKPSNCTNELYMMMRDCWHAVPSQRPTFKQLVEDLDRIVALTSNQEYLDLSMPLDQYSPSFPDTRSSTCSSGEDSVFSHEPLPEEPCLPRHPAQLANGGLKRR
T2 sequence (P21802 22-821): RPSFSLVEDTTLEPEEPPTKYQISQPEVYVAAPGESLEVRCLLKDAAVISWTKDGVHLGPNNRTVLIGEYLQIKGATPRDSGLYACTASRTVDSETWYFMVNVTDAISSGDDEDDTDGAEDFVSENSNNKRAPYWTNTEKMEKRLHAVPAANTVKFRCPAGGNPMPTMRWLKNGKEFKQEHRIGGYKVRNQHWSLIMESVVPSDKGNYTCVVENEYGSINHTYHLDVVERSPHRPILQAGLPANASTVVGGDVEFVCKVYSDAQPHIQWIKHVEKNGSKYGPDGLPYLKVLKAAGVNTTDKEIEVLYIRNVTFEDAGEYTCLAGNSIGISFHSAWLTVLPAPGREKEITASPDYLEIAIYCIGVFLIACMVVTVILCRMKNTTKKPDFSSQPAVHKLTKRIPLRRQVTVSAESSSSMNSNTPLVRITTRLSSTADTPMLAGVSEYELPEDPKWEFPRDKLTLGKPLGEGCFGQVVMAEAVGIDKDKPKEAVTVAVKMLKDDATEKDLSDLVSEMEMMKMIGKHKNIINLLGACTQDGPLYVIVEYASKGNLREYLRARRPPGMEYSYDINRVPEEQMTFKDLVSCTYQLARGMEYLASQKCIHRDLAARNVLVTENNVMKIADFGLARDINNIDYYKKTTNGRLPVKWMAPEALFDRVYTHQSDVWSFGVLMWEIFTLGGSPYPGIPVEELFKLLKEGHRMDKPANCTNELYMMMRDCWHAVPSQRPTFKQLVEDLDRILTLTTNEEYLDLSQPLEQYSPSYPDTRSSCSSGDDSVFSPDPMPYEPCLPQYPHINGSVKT

Structure (SMILES)	Kd (FGFR1) [nM]	Kd (FGFR2) [nM]	Kd (FGFR3) [nM]	Kd (FGFR3 (V555M)) [nM]	Kd (FGFR4) [nM]	IC50 [1] [µM]	IC50 [2] [µM]	IC50 [3] [µM]
CCNC1(C)CN(c2ccc(-c3n[nH]c4ccc(O[C@H](C)c5c(Cl)cncc5Cl)cc34)cn2)C1 [Example 239, 1-[5-[5-[(1R)-1-(3,5-dichloro-4-pyridyl)ethoxy]-1H-indazol-3-yl]-2-pyridyl]-N-ethyl-3-methyl-azetidin-3-amine]	1 to 50	1 to 50	1 to 50	1 to 50	1 to 50	–	–	–
C[C@@H](Oc1ccc2[nH]nc(-c3cnc(N4CC(N)(CC#N)C4)c(F)c3)c2c1)c1c(Cl)cncc1Cl [Example 241, (R)-2-(3-amino-1-(5-(5-(1-(3,5-dichloropyridin-4-yl)ethoxy)-1H-indazol-3-yl)-3-fluoropyridin-2-yl)azetidin-3-yl)acetonitrile]	1 to 50	–	1 to 50	–	–	0.0001 to 0.05	0.05 to 0.2	0.0001 to 0.05
C=CCNC1(CC#N)CN(c2ncc(-c3n[nH]c4ccc(O[C@H](C)c5c(Cl)cncc5Cl)cc34)cc2F)C1 [Example 248, 2-[3-(allylamino)-1-[5-[5-[(1R)-1-(3,5-dichloro-4-pyridyl)ethoxy]-1H-indazol-3-yl]-3-fluoro-2-pyridyl]azetidin-3-yl]acetonitrile]	1 to 50	–	1 to 50	–	–	0.05 to 0.2	0.2 to 1	0.0001 to 0.05
C[C@@H](Oc1ccc2[nH]nc(-c3ccc(N4CC(C)(NCC5CC5)C4)nn3)c2c1)c1c(Cl)cncc1Cl [Example 249, (R)-N-(cyclopropyl-methyl)-1-(6-(5-(1-(3,5-dichloropyridin-4-yl)ethoxy)-1H-indazol-3-yl)pyridazin-3-yl)-3-methylazetidin-3-amine]	1 to 50	–	1 to 50	–	–	0.0001 to 0.05	0.05 to 0.2	0.0001 to 0.05
C[C@@H](Oc1ccc2[nH]nc(-c3ccc(N4CC(N)(CCS(C)(=O)=O)C4)nn3)c2c1)c1c(Cl)cncc1Cl [Example 294, (R)-1-(6-(5-(1-(3,5-dichloropyridin-4-yl)ethoxy)-1H-indazol-3-yl)pyridazin-3-yl)-3-(2-(methylsulfonyl)ethyl)azetidin-3-amine]	1 to 50	–	1 to 50	–	–	0.05 to 0.2	> 1	0.0001 to 0.05
CCCC1(N)CN(c2ccc(-c3n[nH]c4ccc(O[C@H](C)c5c(Cl)cncc5Cl)cc34)nn2)C1 [Example 295, (R)-1-(6-(5-(1-(3,5-dichloropyridin-4-yl)ethoxy)-1H-indazol-3-yl)pyridazin-3-yl)-3-propylazetidin-3-amine]	1 to 50	–	1 to 50	–	–	0.05 to 0.2	–	0.0001 to 0.05
C[C@@H](Oc1ccc2[nH]nc(-c3ccc(N4CC(C)(NC(=O)CN(C)C)C4)nn3)c2c1)c1c(Cl)cncc1Cl [Example 297, (R)—N-(1-(6-(5-(1-(3,5-dichloropyridin-4-yl)ethoxy)-1H-indazol-3-yl)pyridazin-3-yl)-3-methylazetidin-3-yl)-2-(dimethylamino)acetamide]	1 to 50	–	1 to 50	–	–	0.0001 to 0.05	0.0001 to 0.05	0.0001 to 0.05
C[C@@H](Oc1ccc2[nH]nc(-c3ccc(N4CC(C)(NCCF)C4)nn3)c2c1)c1c(Cl)cncc1Cl [Example 309, (R)-1-(6-(5-(1-(3,5-dichloropyridin-4-yl)ethoxy)-1H-indazol-3-yl)pyridazin-3-yl)-N-(2-fluoroethyl)-3-methylazetidin-3-amine]	1 to 50	–	1 to 50	–	–	–	0.05 to 0.2	0.0001 to 0.05
C[C@@H](Oc1ccc2[nH]nc(-c3cnc(N4CC(C)(NCCC#N)C4)c(F)c3)c2c1)c1c(Cl)cncc1Cl [Example 310, (R)-3-((1-(5-(5-(1-(3,5-dichloropyridin-4-yl)ethoxy)-1H-indazol-3-yl)-3-fluoropyridin-2-yl)-3-methylazetidin-3-yl)amino)propane-nitrile]	1 to 50	–	1 to 50	–	–	–	0.05 to 0.2	0.0001 to 0.05
C[C@@H](Oc1cc2c(-c3cnc(N4CC(C)(CN5CCCC5)C4)c(C#N)c3)n[nH]c2cc1F)c1c(Cl)cncc1Cl [Example 317, (R)-5-(5-(1-(3,5-dichloropyridin-4-yl)ethoxy)-6-fluoro-1H-indazol-3-yl)-2-(3-methyl-3-(pyrrolidin-1-ylmethyl)azetidin-1-yl)nicotinonitrile]	50 to 300	50 to 300	1 to 50	1 to 50	1 to 50	–	–	–
C[C@@H](Oc1ccc2[nH]nc(-c3cnc(N4CC(C)(NCC5CC5)C4)c(C#N)c3)c2c1F)c1c(Cl)cncc1Cl [Example 318, (R)-2-(3-((cyclopropylmethyl)amino)-3-methylazetidin-1-yl)-5-(5-(1-(3,5-dichloropyridin-4-yl)ethoxy)-4-fluoro-1H-indazol-3-yl)nicotinonitrile]	> 1000	> 1000	> 1000	> 1000	50 to 300	–	–	–
CC(C)NC1(C)CN(c2ncc(-c3n[nH]c4ccc(O[C@H](C)c5c(Cl)cncc5Cl)c(F)c34)cc2C#N)C1 [Example 319, (R)-5-(5-(1-(3,5-dichloropyridin-4-yl)ethoxy)-4-fluoro-1H-indazol-3-yl)-2-(3-(isopropylamino)-3-methylazetidin-1-yl)nicotinonitrile]	> 1000	> 1000	> 1000	300 to 1000	50 to 300	–	–	–
C[C@@H](Oc1ccc2[nH]nc(-c3cnc(N4CC(C)(N5CCCC5)C4)c(C#N)c3)c2c1F)c1c(Cl)cncc1Cl [Example 322, (R)-5-(5-(1-(3,5-dichloropyridin-4-yl)ethoxy)-4-fluoro-1H-indazol-3-yl)-2-(3-methyl-3-(pyrrolidin-1-yl)azetidin-1-yl)nicotinonitrile]	> 1000	> 1000	> 1000	300 to 1000	50 to 300	–	–	–
C[C@@H](Oc1ccc2[nH]nc(-c3cnc(N4CC(C)(CP(C)(C)=O)C4)c(C#N)c3)c2c1F)c1c(Cl)cncc1Cl [Example 323, (R)-5-(5-(1-(3,5-dichloropyridin-4-yl)ethoxy)-4-fluoro-1H-indazol-3-yl)-2-(3-((dimethyl-phosphoryl)methyl)-3-methylazetidin-1-yl)nicotinonitrile]	> 1000	> 1000	> 1000	300 to 1000	1 to 50	–	–	–
C[C@@H](Oc1ccc2[nH]nc(-c3cnc(N4CC(C)(NCCO)C4)c(C#N)c3)c2c1F)c1c(Cl)cncc1Cl [Example 324, (R)-5-(5-(1-(3,5-dichloropyridin-4-yl)ethoxy)-4-fluoro-1H-indazol-3-yl)-2-(3-((2-hydroxy-ethyl)amino)-3-methylazetidin-1-yl)nicotinonitrile]	> 1000	> 1000	> 1000	300 to 1000	1 to 50	–	–	–
CC(C)NCC1(C)CN(c2ncc(-c3n[nH]c4ccc(O[C@H](C)c5c(Cl)cncc5Cl)c(F)c34)cc2C#N)C1 [Example 326, (R)-5-(5-(1-(3,5-dichloropyridin-4-yl)ethoxy)-4-fluoro-1H-indazol-3-yl)-2-(3-((isopropylamino)methyl)-3-methylazetidin-1-yl)nicotinonitrile]	> 1000	> 1000	> 1000	> 1000	1 to 50	–	–	–
C[C@@H](Oc1ccc2[nH]nc(-c3cnc(N4CC(C)(N5CCOCC5)C4)c(C#N)c3)c2c1F)c1c(Cl)cncc1Cl [Example 327, (R)-5-(5-(1-(3,5-dichloropyridin-4-yl)ethoxy)-4-fluoro-1H-indazol-3-yl)-2-(3-methyl-3-morpholinoazetidin-1-yl)nicotinonitrile]	> 1000	> 1000	> 1000	> 1000	50 to 300	–	–	–
